Data published in patent US8354417B2, “Solid forms comprising 3-(2,5-dimethyl-4-oxo-4H-quinazolin-3-yl)-piperidine-2,6-dione, compositions comprising the same, and methods of using the same” (Celgene Corporation, priority 2007, dated 2013).
Converted amounts (≈) assume the structure as drawn. “Also recorded” adds a separate entry of the source. Values belong to the molecule of their own block, whether it stands above or below them.

Assays:
[1] = Moisture sorption/desorption by Dynamic Vapor Sorption (DVS); assay type: physicochemical; details: isothermic approximately 23.3° C.; for Mass increase in moisture sorption test: approximately 0% RH to approximately 50% RH (FIG. 5 / FIG. 10); for Total mass increase in moisture sorption test: approximately 0% RH to approximately 95% RH (FIG. 5 / FIG. 10)
[2] = as above; assay type: physicochemical; details: for Mass change relative to the dry mass: DVS, RH increased from 0% to 95% RH (25° C. per general method); for Weight at the end of the desorption cycle: RH decreased from 95% RH to 0% RH; for XRPD diffractogram after completion of the adsorption/desorption cycle: after full DVS cycle 0% - 95% - 0% RH; for Hygroscopicity: conclusion from moisture sorption test
Method: The moisture sorption/desorption behavior of Form A was investigated by Dynamic Vapor Sorption (DVS).
The moisture sorption/desorption behavior of Form B was investigated by Dynamic Vapor Sorption (DVS).
Hygroscopicity was determined using a Surface Measurement Systems DVS instrument. Typically, a sample size of 10-50 mg was loaded into the DVS instrument sample pan and the sample was analyzed on a DVS automated sorption analyzer at 25° C. The relative humidity (RH) was increased from 0% RH to 95% RH. The RH was then decreased in a similar manner to accomplish a full adsorption/desorption cycle.

[3] = Approximate measured solubility in solvents at 25° C.; assay type: physicochemical; details: at least 24 hours; for solubility: 25 °C, thermodynamic from solid
Method: (§1) The solubility of Form A was investigated in a number of solvents at ambient conditions. Solubility measurements were obtained by adding solvent (either HPLC grade or reagent grade) to a carefully weighed (approximately 100 mg) sample of Form A. The resulting mixture was agitated for at least 24 hours at 25° C. The solubility was estimated based on the total volume of solvent required to give a complete solution. In addition, a known volume of filtrate was evaporated to dryness and the weight of the residue was measured.
as §1, with “B” for “A”, “B.” for “A.”

[4] = Stability of slurry in solvents at 40° C. for four weeks; assay type: physicochemical
Method: The stability of Form A was further investigated by storing a slurry of Form A in each of the following solvents at 40° C. for four weeks: acetone; acetonitrile; ethanol; heptane; 2-propanol; methyl t-butyl ether; methanol; water; and ethanol/water (1/1). The Form A material was stable in acetone; acetonitrile; ethanol; heptane; 2-propanol; methyl t-butyl ether; and methanol.
The stability of Form B was further investigated by storing a slurry of Form B in the following solvents at 40° C. for four weeks: acetone; acetonitrile; ethanol; heptane; 2-propanol; methyl t-butyl ether; methanol; water; and ethanol/water (1/1). The Form B material was stable in heptane; methyl t-butyl ether; water; and ethanol/water (1/1).

[5] = Stability on exposure to 40° C./75% RH for four weeks (XRPD); assay type: physicochemical; details: 40° C./75% RH environment
Method: The stability of Form A was investigated by exposing a sample of Form A to a 40° C./75% RH environment for four weeks.
The stability of Form B was investigated by exposing a sample of Form B to a 40° C./75% RH environment for four weeks.
(§2) X-ray powder diffraction (XRPD) analysis was conducted using a Thermo ARL X'TRA X-ray powder diffractometer using CuKα radiation at 1.54 Å. The instrument was equipped with a fine focus X-ray tube. The voltage and amperage of the X-ray generator were set at 45 kV and 40 mA, and the measuring slits were set at 0.5 mm and 0.2 mm. Diffracted radiation was measured using a Peltier-cooled Si (Li) solid-state detector. A theta-two theta continuous scan at 2.40°/min (0.5 sec/0.02° step) from 1.5°2θ to 40°2θ was used. A sintered alumina standard was used as a reference.

[6] = Slurry equilibration in solvents at 25° C. or 50° C.; assay type: physicochemical; details: ethyl acetate, heptane, methyl t-butyl ether, toluene
Method: Form A was prepared via crystallization of 3-(2,5-dimethyl-4-oxo-4H-quinazolin-3-yl)-piperidine-2,6-dione in several organic solvent systems. Slurry crystallizations were performed by adding an excess of solid 3-(2,5-dimethyl-4-oxo-4H-quinazolin-3-yl)-piperidine-2,6-dione to 2 ml of the desired solvent system, then agitating the resulting mixture for a minimum of 24 hours at a controlled temperature. Upon reaching equilibrium, the solids were filtered, air-dried and characterized. Form A was prepared by slurry crystallization of Form B in each of the following solvents at 25° C.: acetone; acetonitrile; n-butanol; ethanol; methanol; methyl ethyl ketone; 2-propanol; and tetrahydrofuran.
Form B was prepared via crystallization of 3-(2,5-dimethyl-4-oxo-4H-quinazolin-3-yl)-piperidine-2,6-dione in several organic and aqueous solvent systems, including dimethylsulfoxide/water. Slurry crystallizations were performed by adding an excess of solid 3-(2,5-dimethyl-4-oxo-4H-quinazolin-3-yl)-piperidine-2,6-dione to 2 ml of the desired solvent system, then agitating the resulting mixture for a minimum of 24 hours at a controlled temperature. Upon reaching equilibrium, the solids were filtered, air-dried and characterized. Form B was prepared by slurry crystallization of Form A in the following solvents at both 25° C. and 50° C.: water; and ethanol/water (1/1).

[7] = Compression testing, 2,000 psi for approximately 1 minute (XRPD); assay type: physicochemical; details: 2,000 psi pressure
Method: The stability of Form A was further investigated using compression testing. Compression testing of Form A was carried out by applying 2,000 psi pressure to a sample of Form A for approximately 1 minute, followed by analysis for stability using X-ray powder diffraction.
The stability of Form B was further investigated using compression testing. Compression testing of Form B was carried out by applying 2,000 psi pressure to a sample of Form B for approximately 1 minute, followed by analysis for stability using X-ray powder diffraction.
as §2

- Mass increase in moisture sorption test [1]: approximately 1%
- Total mass increase in moisture sorption test [1]: approximately 4%
- Mass change relative to the dry mass [2]: 0.7%
- XRPD diffractogram after completion of the adsorption/desorption cycle [2]: substantially unchanged
- Hygroscopicity [2]: substantially non-hygroscopic
- solubility ([3]; 2-propanol, organic solvent or mixture): 210 µg/mL (≈ 736 µM)
- solubility ([3]; absolute ethanol, organic solvent or mixture): 500 µg/mL (≈ 1750 µM)
- solubility ([3]; acetone, organic solvent or mixture): 2070 µg/mL (≈ 7260 µM)
- solubility ([3]; acetonitrile, organic solvent or mixture): 1490 µg/mL (≈ 5220 µM)
- solubility ([3]; ethanol/water (1/1), aqueous with cosolvent or surfactant or cyclodextrin): 180 µg/mL (≈ 631 µM)
- solubility ([3]; ethyl acetate, organic solvent or mixture): 670 µg/mL (≈ 2350 µM)
- solubility ([3]; heptane, organic solvent or mixture): 430 µg/mL (≈ 1510 µM)
- solubility ([3]; methanol, organic solvent or mixture): 1280 µg/mL (≈ 4490 µM)
- solubility ([3]; methyl ethyl ketone, organic solvent or mixture): 1390 µg/mL (≈ 4870 µM)
- solubility ([3]; methyl t-butyl ether, organic solvent or mixture): 420 µg/mL (≈ 1470 µM)
- solubility ([3]; methylene chloride, organic solvent or mixture): 2120 µg/mL (≈ 7430 µM)
- solubility ([3]; n-butanol, organic solvent or mixture): 230 µg/mL (≈ 806 µM)
- solubility ([3]; tetrahydrofuran, organic solvent or mixture): 4570 µg/mL (≈ 16000 µM)
- solubility ([3]; toluene, organic solvent or mixture): 320 µg/mL (≈ 1120 µM)
- solubility ([3]; water): 170 µg/mL (≈ 596 µM)
- Stability of slurry ([4]; acetone, acetonitrile, ethanol, heptane, 2-propanol, methyl t-butyl ether, methanol): stable
- Stability of slurry ([4]; water and ethanol/water (1/1)): converted into the Form B crystal form
- Stability when slurried ([6]; 25° C., acetone, acetonitrile, n-butanol, ethanol, methanol, methylene chloride, methyl ethyl ketone, 2-propanol, tetrahydrofuran): stable
- Stability when slurried ([6]; 50° C., acetone, acetonitrile, n-butanol, ethanol, methanol, methyl ethyl ketone, 2-propanol, tetrahydrofuran): stable
- melting point: 292 to 294 °C
SMILES: Cc1cccc2nc(C)n(C3CCC(=O)NC3=O)c(=O)c12 (single isomer, unassigned) [Form A, 3-(2,5-dimethyl-4-oxo-4H-quinazolin-3-yl)-piperidine-2,6-dione]
- Weight at the end of the desorption cycle [2]: lost all of the weight it had gained; also recorded: loses approximately all of the adsorbed moisture
- Physical stability of the solid form by X-ray powder diffraction [5]: substantially unchanged; also recorded: physically stable
- Physical stability upon compression by X-ray powder diffraction [7]: substantially unchanged; also recorded: physically stable

- Mass increase in moisture sorption test [1]: approximately 1.5%
- Total mass increase in moisture sorption test [1]: approximately 3%
- Mass change relative to the dry mass [2]: 2.9%
- XRPD diffractogram after completion of the adsorption/desorption cycle [2]: substantially unchanged
- Hygroscopicity [2]: substantially non-hygroscopic
- Approximate Solubility ([3]; 2-Propanol): 350 µg/mL
- Approximate Solubility ([3]; Absolute ethanol): 500 µg/mL
- Approximate Solubility ([3]; Acetone): 2560 µg/mL
- Approximate Solubility ([3]; Acetonitrile): 1400 µg/mL
- Approximate Solubility ([3]; Ethanol/Water (1/1)): 280 µg/mL
- Approximate Solubility ([3]; Ethyl acetate): 1160 µg/mL
- Approximate Solubility ([3]; Heptane): 440 µg/mL
- Approximate Solubility ([3]; Methanol): 1310 µg/mL
- Approximate Solubility ([3]; Methyl ethyl ketone): 1570 µg/mL
- Approximate Solubility ([3]; Methyl t-butyl ether): 430 µg/mL
- Approximate Solubility ([3]; Methylene chloride): 1630 µg/mL
- Approximate Solubility ([3]; Tetrahydrofuran): 4710 µg/mL
- Approximate Solubility ([3]; Toluene): 200 µg/mL
- Approximate Solubility ([3]; Water): 100 µg/mL
- Approximate Solubility ([3]; n-Butanol): 340 µg/mL
- Stability of slurry ([4]; 2-propanol): converted to a mixture of Forms A and B
- Stability of slurry ([4]; acetone, acetonitrile, ethanol and methanol): converted into the Form A crystal form
- Stability of slurry ([4]; heptane, methyl t-butyl ether, water, ethanol/water (1/1)): stable
- Stability when slurried ([6]; 25° C., methylene chloride, water, ethanol/water (1/1)): stable
SMILES: Cc1cccc2nc(C)n(C3CCC(=O)NC3=O)c(=O)c12 (single isomer, unassigned) [Form B, 3-(2,5-dimethyl-4-oxo-4H-quinazolin-3-yl)-piperidine-2,6-dione]
- Weight at the end of the desorption cycle [2]: lost all of the weight it had gained; also recorded: loses approximately all of the adsorbed moisture
- Physical stability of the solid form by X-ray powder diffraction [5]: substantially unchanged; also recorded: physically stable
- Physical stability upon compression by X-ray powder diffraction [7]: substantially unchanged; also recorded: physically stable
